Assays:
Test in all cases: relative viability (nuclei count vs DMSO), 5 days (fraction); higher = more cells survive
[1] = compound: C1/C(=C\C2=CC=CS2)/C(=O)/C(=C/C3=CC=CS3)/C1
How it was run: (§1)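 A plate was accepted only when its control CV was below 25% and the cells had doubled at least once. Viability is defined from nuclear counts as treated wells divided by vehicle wells, with the median taken across plates. That median covers lung cancer cell lines grown in 1536-well plates, dosed by pinning at five √10-spaced library-drug concentrations, and counted in MetaXpress from 4× Hoechst images after 5 days.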

[2] = compound: C1=CC(=CC=C1C2=CC(=C(S2)NC(=O)N)C(=O)N)F [TPCA-1]
How it was run: as §1

[3] = compound: C[C@]12O[C@H](C[C@]1(O)CO)n1c3ccccc3c3c4c(c5c6ccccc6n2c5c31)CNC4=O [Lestaurtinib]
How it was run: as §1

Cell Line	relative viability ([1]; 0.2 µM)	relative viability ([1]; 0.6325 µM)	relative viability ([1]; 2 µM)	relative viability ([1]; 6.325 µM)	relative viability ([1]; 20 µM)	relative viability ([2]; 0.04 µM)	relative viability ([2]; 0.1265 µM)	relative viability ([2]; 0.4 µM)	relative viability ([2]; 1.265 µM)	relative viability ([2]; 4 µM)	relative viability ([3]; 0.005 µM)	relative viability ([3]; 0.01581 µM)	relative viability ([3]; 0.05 µM)	relative viability ([3]; 0.1581 µM)	relative viability ([3]; 0.5 µM)
201T	1.01	0.963	1.06	0.935	0.935	1.02	0.951	1	1.01	0.835	1.04	1.08	0.928	1.04	0.678
A549	0.987	0.983	1.01	0.772	0.931	1.05	0.956	0.955	0.871	0.782	1.04	1	0.791	0.521	0.162
A-427	1.03	1.05	1.05	0.954	1.01	1.1	0.94	1.11	0.89	0.312	1.05	1.13	0.792	0.435	0.199
ABC-1	0.87	1.03	1.13	0.842	0.888	1.02	0.798	0.982	0.771	0.638	0.976	1.01	0.79	0.735	0.327
BEN	0.935	1	1.11	0.848	0.934	1.01	0.873	1.05	1.08	0.774	0.993	1.11	0.888	0.8	0.278
CAL-12T	1.04	1.07	0.978	0.859	0.994	0.989	0.925	1.05	0.86	0.468	0.962	1.17	0.968	0.788	0.61
COR-L23	1.03	1.05	1	0.865	0.947	1.03	0.924	0.968	0.986	0.857	1.08	1.13	0.633	0.829	0.166
COR-L 105	0.989	0.895	0.956	0.71	0.836	1	0.9	0.99	0.806	0.615	0.897	0.978	0.808	0.572	0.313
Calu-6	1.06	1.05	0.993	0.944	0.985	1.06	0.95	0.982	1	0.72	1.05	0.999	0.621	0.518	0.204
ChaGo-K-1	0.997	1.02	1.02	0.787	0.535	1.09	0.927	0.965	0.925	0.637	1	1.08	0.906	1.01	0.437
EBC-1	1.08	1.07	1.01	0.888	0.972	1.15	0.975	0.991	0.973	0.988	1.04	1.15	0.818	0.756	0.428
EKVX	0.984	0.928	1.15	0.772	0.961	1.05	0.829	1.04	0.815	0.737	1	1.09	1.05	1.01	0.663
EMC-BAC-2	0.904	1.06	0.978	0.916	1.07	1.01	0.979	1.05	0.819	0.392	0.925	1.04	0.73	0.417	0.357
EPLC-272H	1.13	0.925	1.01	0.833	0.786	1.06	0.881	1.12	0.805	0.676	0.801	0.748	0.607	0.444	0.304
H3255	1.03	1.04	0.977	0.899	0.972	1.08	0.898	0.916	0.816	0.783	1.03	1.08	0.935	0.744	0.511
HARA	1.11	0.94	1.03	0.853	0.945	1.05	0.996	1.06	1.14	0.476	1.09	1.22	1.08	0.619	0.499
HCC-15	1.04	1.04	1.03	0.87	0.977	1.14	0.926	1.04	0.887	0.55	1.08	1.18	0.873	0.824	0.183
HCC-44	1.02	1	0.989	0.898	0.962	1.01	0.933	0.965	0.643	0.901	0.923	1.16	0.941	1.11	0.845
HCC-78	0.972	0.927	1.25	0.823	0.908	0.972	0.834	0.892	0.788	0.391	0.823	0.943	0.547	0.577	0.44
HCC-366	1.02	1.05	1.1	0.827	1.04	1.03	0.995	1.01	1.01	0.152	1.06	1.01	1.02	1.01	0.829
HCC-827	1.05	1.04	1.05	0.956	1.04	1.12	0.988	1.05	0.961	0.813	1.01	1.07	1.03	0.892	0.664
HOP-62	1.1	1.02	1.01	0.928	1.01	1.02	0.97	0.956	0.943	0.852	1.02	1.11	0.921	1.12	0.452
